Results as given in ChEMBL document CHEMBL5715260, “Selectivity Literature for EUbOPEN Chemogenomic Library” (2024).
Blank lines part the entries; values can stand above or below the compound they belong to. Where a SMILES comes first, the peptide text is derived from it. The star is where a group is joined. CH2Cl = ClC*

What was measured:
Set-up in all cases: recommended concentration 1 uM
[1] = biological target: N-lysine methyltransferase SMYD2 (Homo sapiens, UniProt Q9NRG4); experiment: Selectivity interaction (Enzymatic assay) EUB0002243aAD SMYD2
Sequence of N-lysine methyltransferase SMYD2 (Q9NRG4 whole entry): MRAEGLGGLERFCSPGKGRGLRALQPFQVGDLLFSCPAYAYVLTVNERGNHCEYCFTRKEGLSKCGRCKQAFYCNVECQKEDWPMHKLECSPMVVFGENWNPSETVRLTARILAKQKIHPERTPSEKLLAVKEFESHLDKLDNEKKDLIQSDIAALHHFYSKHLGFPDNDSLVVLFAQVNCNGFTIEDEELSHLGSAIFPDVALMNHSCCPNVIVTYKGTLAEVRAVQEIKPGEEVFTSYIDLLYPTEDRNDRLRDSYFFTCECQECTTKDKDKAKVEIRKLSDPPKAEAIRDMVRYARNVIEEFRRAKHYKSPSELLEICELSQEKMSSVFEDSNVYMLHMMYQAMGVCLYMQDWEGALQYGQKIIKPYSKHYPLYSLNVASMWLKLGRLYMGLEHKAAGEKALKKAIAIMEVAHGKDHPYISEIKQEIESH

[2] = biological target: Alpha-1A adrenergic receptor (Homo sapiens, UniProt P35348); experiment: Selectivity interaction (US National Institute of Mental Health's Psychoactive Drug Screen Program Selectivity Panel) EUB0001125a ADRA1A
[3] = biological target: Alpha-2C adrenergic receptor (Homo sapiens, UniProt P18825); experiment: Selectivity interaction (US National Institute of Mental Health's Psychoactive Drug Screen Program Selectivity Panel) EUB0001125a ADRA2C
Sequence of Alpha-2C adrenergic receptor (P18825 whole entry): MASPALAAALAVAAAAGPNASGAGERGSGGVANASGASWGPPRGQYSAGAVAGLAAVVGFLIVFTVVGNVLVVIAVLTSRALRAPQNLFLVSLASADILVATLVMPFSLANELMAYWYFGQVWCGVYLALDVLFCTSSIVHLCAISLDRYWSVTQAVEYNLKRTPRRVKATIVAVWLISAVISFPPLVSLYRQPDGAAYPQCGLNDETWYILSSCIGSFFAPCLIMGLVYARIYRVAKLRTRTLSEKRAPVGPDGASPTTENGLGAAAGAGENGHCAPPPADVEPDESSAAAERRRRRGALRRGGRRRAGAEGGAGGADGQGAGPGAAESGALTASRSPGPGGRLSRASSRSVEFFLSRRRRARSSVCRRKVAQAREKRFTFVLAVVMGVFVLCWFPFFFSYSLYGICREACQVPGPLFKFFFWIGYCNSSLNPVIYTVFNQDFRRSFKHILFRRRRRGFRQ

[4] = biological target: Alpha-1B adrenergic receptor (Homo sapiens) (UniProt P35368); experiment: Selectivity interaction (Ricerca selectivity panel) EUB0001125a ADRA1B; settings: at 1 µM
Sequence of Alpha-1B adrenergic receptor (Homo sapiens) (P35368 whole entry): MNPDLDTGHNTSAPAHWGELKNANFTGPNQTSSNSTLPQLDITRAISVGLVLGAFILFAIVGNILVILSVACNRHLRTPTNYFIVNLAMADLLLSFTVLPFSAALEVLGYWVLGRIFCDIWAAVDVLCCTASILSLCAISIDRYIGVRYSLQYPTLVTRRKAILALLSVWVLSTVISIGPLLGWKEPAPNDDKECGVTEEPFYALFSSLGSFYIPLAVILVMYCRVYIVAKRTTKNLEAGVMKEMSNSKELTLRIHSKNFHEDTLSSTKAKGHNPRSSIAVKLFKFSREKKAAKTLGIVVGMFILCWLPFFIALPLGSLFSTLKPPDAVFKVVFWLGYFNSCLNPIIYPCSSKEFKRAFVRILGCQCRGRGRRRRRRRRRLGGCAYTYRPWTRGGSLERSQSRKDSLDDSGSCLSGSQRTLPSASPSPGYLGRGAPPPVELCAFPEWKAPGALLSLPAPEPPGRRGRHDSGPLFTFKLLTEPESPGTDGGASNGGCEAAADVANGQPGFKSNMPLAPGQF

[5] = biological target: Alpha-1A adrenergic receptor (Homo sapiens) (UniProt P35348); experiment: Selectivity interaction (Ricerca selectivity panel) EUB0001125a ADRA1A; settings: at 1 µM
[6] = biological target: Muscarinic acetylcholine receptor M2 (Homo sapiens, UniProt P08172); experiment: Selectivity interaction (US National Institute of Mental Health's Psychoactive Drug Screen Program Selectivity Panel) EUB0001125a CHRM2
Sequence of Muscarinic acetylcholine receptor M2 (P08172 whole entry): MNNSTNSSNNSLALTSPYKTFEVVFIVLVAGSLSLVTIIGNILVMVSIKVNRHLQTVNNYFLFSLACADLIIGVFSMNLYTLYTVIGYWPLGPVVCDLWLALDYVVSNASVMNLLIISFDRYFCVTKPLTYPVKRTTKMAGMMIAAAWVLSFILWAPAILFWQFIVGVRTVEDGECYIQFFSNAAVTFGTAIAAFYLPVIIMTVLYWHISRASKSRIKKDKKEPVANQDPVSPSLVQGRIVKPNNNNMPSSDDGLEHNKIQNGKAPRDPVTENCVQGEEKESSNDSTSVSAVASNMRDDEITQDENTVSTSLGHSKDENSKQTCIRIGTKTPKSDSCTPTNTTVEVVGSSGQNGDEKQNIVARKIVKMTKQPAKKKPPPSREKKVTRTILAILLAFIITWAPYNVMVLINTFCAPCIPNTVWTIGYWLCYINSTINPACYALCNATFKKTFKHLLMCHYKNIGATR

[7] = biological target: 5-hydroxytryptamine receptor 2A (Homo sapiens, UniProt P28223); experiment: Selectivity interaction (US National Institute of Mental Health's Psychoactive Drug Screen Program Selectivity Panel) EUB0001125a HTR2A
Sequence of 5-hydroxytryptamine receptor 2A (P28223 whole entry): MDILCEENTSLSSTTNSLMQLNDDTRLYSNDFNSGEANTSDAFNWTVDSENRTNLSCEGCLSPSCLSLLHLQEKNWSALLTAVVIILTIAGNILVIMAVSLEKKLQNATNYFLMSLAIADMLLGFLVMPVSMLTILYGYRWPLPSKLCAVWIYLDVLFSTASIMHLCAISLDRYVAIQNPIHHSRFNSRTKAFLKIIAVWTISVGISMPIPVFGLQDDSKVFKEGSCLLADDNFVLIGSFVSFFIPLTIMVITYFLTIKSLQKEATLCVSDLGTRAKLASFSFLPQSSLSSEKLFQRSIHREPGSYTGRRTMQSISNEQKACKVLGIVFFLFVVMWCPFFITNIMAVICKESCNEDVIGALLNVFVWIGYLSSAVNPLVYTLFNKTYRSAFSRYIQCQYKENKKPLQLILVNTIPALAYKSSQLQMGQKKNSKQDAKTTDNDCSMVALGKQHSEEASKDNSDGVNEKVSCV

[8] = biological target: Muscarinic acetylcholine receptor M4 (Homo sapiens, UniProt P08173); experiment: Selectivity interaction (US National Institute of Mental Health's Psychoactive Drug Screen Program Selectivity Panel) EUB0001125a CHRM4
[9] = biological target: Muscarinic acetylcholine receptor M1 (Homo sapiens, UniProt P11229); experiment: Selectivity interaction (US National Institute of Mental Health's Psychoactive Drug Screen Program Selectivity Panel) EUB0001125a CHRM1
[10] = biological target: Muscarinic acetylcholine receptor M2 (Homo sapiens) (UniProt P08172); experiment: Selectivity interaction (Ricerca selectivity panel) EUB0001125a CHRM2; settings: at 1 µM
Sequence of Muscarinic acetylcholine receptor M2 (Homo sapiens) (P08172 whole entry): as the sequence (P08172 whole entry) above

Caspase-9 [11] = biological target: T1, Caspase-9 (Homo sapiens, UniProt P55211); experiment: Selectivity interaction (Eurofins (enzymatic assay)) EUB0002201a CASP9
T1 sequence (P55211 whole entry): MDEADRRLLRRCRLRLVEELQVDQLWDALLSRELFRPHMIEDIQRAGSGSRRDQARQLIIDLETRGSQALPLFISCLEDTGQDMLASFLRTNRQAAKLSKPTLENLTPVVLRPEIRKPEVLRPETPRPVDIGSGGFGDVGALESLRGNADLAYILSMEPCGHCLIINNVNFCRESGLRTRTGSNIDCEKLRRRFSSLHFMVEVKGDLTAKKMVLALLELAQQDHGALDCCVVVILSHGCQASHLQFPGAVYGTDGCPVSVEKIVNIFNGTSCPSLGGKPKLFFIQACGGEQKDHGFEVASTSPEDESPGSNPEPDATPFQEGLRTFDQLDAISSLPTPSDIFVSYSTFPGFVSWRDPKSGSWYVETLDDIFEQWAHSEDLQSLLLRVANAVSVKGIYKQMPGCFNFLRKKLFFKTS

Caspase-2 = Caspase-2 (Homo sapiens, UniProt P42575); experiment: Selectivity interaction (Eurofins (enzymatic assay)) EUB0002201a CASP2
Sequence of Caspase-2 (P42575 170-325 limits assumed): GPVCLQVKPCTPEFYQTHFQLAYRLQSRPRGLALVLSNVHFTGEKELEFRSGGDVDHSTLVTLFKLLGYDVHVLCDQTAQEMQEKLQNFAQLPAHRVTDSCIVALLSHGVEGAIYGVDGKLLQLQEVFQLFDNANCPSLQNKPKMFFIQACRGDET
Sequence of Caspase-2 (P42575 334-452 limits assumed): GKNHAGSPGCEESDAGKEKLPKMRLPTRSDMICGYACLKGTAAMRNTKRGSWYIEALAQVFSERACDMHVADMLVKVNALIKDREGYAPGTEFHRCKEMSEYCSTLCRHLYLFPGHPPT

Caspase-6 = Caspase-6 (Homo sapiens, UniProt P55212); experiment: Selectivity interaction (Eurofins (enzymatic assay)) EUB0002201a CASP6
Caspase-10 [12] = biological target: T2, Caspase-10 (Homo sapiens, UniProt Q92851); experiment: Selectivity interaction (Eurofins (enzymatic assay)) EUB0002201a CASP10
T2 sequence (Q92851 whole entry): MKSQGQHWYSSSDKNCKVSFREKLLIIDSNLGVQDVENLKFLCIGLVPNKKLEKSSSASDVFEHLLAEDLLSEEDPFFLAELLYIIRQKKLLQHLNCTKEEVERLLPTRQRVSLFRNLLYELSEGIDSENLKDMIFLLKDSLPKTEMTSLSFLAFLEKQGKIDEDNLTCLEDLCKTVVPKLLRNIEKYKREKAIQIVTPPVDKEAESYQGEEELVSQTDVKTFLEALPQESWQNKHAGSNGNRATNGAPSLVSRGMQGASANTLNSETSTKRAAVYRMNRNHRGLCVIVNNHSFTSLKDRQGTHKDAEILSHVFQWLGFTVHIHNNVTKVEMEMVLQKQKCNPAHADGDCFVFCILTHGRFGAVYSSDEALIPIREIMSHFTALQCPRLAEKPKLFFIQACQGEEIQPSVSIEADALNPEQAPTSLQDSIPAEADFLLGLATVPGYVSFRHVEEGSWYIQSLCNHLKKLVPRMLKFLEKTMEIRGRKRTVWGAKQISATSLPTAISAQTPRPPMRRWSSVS

Caspase-5 [13] = biological target: T3, Caspase-5 (Homo sapiens, UniProt P51878); experiment: Selectivity interaction (Eurofins (enzymatic assay)) EUB0002201a CASP5
T3 sequence (P51878 whole entry): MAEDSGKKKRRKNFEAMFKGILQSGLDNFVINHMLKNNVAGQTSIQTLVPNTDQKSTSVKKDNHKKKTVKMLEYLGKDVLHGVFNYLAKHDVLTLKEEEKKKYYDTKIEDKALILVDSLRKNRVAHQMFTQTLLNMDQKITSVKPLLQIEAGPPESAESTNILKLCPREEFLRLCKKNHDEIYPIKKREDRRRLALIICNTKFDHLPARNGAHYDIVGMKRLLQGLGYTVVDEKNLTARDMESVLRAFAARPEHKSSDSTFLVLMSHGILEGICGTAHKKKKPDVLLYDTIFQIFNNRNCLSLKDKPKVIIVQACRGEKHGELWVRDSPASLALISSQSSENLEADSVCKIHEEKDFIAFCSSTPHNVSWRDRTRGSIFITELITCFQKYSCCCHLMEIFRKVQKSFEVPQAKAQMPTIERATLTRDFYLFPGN

Caspase-7 = biological target: T4, Caspase-7 (Homo sapiens, UniProt P55210); experiment: Selectivity interaction (Eurofins (enzymatic assay)) EUB0002201a CASP7
T4 sequence (P55210 whole entry): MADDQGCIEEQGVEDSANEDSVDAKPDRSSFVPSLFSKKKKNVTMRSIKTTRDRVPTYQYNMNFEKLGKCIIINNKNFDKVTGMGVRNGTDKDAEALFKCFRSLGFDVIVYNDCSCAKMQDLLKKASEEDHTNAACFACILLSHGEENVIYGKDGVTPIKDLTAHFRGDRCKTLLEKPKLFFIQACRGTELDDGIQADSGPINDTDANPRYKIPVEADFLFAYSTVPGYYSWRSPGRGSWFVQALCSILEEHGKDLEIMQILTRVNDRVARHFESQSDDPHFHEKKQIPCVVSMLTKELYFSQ

Caspase-8 = Caspase-8 (Homo sapiens, UniProt Q14790); experiment: Selectivity interaction (Eurofins (enzymatic assay)) EUB0002201a CASP8
Sequence of Caspase-8 (Q14790 217-374 limits assumed): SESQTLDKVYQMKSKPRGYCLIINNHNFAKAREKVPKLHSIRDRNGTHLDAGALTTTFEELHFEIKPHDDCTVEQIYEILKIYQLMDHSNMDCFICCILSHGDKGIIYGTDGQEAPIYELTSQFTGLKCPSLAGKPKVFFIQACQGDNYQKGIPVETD
Sequence of Caspase-8 (Q14790 385-479 limits assumed): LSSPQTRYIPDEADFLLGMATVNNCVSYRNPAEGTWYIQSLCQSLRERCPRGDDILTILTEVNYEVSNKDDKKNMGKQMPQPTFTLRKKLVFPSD

Caspase-3 = Caspase-3 (Homo sapiens, UniProt P42574); experiment: Selectivity interaction (Eurofins (enzymatic assay)) EUB0002201a CASP3
Sequence of Caspase-3 (P42574 29-175 limits assumed): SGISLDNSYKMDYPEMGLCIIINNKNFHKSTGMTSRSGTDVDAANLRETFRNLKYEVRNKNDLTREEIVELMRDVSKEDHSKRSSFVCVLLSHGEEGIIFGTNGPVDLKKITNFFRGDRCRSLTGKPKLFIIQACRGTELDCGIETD
Sequence of Caspase-3 (P42574 176-277 limits assumed): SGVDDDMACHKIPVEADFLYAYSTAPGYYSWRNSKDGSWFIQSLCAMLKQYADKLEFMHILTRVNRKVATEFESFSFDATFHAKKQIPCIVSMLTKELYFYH

[14] = biological target: Poly [ADP-ribose] polymerase 1 (Homo sapiens, UniProt P09874); experiment: Selectivity interaction (Enzymatic assay) EUB0002249a PARP1
[15] = biological target: Poly [ADP-ribose] polymerase tankyrase-1 (Homo sapiens, UniProt O95271); experiment: Selectivity interaction (Enzymatic assay) EUB0002249a TNKS1
Sequence of Poly [ADP-ribose] polymerase tankyrase-1 (O95271 whole entry): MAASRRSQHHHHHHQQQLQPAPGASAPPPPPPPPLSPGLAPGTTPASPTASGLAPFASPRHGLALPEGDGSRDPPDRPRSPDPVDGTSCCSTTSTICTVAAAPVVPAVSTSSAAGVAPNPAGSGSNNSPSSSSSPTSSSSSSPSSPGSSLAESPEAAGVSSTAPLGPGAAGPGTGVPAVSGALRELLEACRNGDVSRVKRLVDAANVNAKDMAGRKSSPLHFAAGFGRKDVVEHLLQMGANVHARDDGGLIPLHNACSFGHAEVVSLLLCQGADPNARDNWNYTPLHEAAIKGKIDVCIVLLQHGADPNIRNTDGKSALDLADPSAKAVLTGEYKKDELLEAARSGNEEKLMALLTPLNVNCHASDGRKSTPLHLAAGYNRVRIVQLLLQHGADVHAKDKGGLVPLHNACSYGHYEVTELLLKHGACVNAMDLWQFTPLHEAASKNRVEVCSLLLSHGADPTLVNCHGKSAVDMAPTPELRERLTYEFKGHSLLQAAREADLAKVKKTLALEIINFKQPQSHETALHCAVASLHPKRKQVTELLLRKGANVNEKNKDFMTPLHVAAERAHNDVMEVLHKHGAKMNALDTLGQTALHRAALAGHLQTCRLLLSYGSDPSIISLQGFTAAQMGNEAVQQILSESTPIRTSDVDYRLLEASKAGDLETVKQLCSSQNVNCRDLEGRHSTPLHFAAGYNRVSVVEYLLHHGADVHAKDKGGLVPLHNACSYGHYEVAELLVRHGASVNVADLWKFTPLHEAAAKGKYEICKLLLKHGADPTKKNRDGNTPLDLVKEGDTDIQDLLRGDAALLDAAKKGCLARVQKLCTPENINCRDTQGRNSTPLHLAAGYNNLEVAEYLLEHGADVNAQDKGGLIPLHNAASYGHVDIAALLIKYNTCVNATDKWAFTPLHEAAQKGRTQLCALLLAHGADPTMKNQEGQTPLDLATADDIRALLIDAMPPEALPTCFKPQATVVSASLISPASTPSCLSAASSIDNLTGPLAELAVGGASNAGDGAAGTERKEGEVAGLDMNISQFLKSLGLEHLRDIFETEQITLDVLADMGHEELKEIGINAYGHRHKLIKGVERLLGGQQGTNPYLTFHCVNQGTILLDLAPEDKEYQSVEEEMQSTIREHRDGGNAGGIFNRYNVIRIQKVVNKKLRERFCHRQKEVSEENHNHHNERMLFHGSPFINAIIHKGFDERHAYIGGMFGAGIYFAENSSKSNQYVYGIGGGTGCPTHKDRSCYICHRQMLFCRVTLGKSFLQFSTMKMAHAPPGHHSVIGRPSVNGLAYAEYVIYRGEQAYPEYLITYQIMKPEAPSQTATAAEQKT

Caspase-5 [16] = biological target: T3, Caspase-5; experiment: (§1) Selectivity interaction (Enzymatic assay) EUB0002176a CASP5
Caspase-5 [17] = biological target: T3, Caspase-5; experiment: as §1; remark: listed apart in the source
Caspase-10 [18] = biological target: T2, Caspase-10; experiment: (§2) Selectivity interaction (Enzymatic assay) EUB0002198aAD CASP10
Caspase-5 [19] = biological target: T3, Caspase-5; experiment: Selectivity interaction (Enzymatic assay) EUB0002198aAD CASP5
Caspase-10 [20] = biological target: T2, Caspase-10; experiment: as §2; remark: listed apart in the source
Caspase-10 [21] = biological target: T2, Caspase-10; experiment: as §2; remark: listed apart in the source
Caspase-4 = Caspase-4 (Homo sapiens, UniProt P49662); experiment: Selectivity interaction (Enzymatic assay) EUB0002198aAD CASP4
Caspase-14 = Caspase-14 (Homo sapiens, UniProt P31944); experiment: Selectivity interaction (Enzymatic assay) EUB0002198aAD CASP14
Sequence of Caspase-14 (P31944 6-146 limits assumed): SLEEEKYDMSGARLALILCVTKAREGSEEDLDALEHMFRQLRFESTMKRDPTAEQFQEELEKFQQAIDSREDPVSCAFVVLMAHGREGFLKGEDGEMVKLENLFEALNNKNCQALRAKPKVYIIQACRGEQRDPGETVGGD
Sequence of Caspase-14 (P31944 153-242 limits assumed): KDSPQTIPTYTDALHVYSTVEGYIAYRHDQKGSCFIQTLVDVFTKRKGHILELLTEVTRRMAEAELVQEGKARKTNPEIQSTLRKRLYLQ

Caspase-9 [22] = biological target: T1, Caspase-9; experiment: Selectivity interaction (Enzymatic assay) EUB0002198aAD CASP9

Structure (SMILES): COc1cc2c(NC3CCN(C(C)C)CC3)nc(C3CCCCC3)nc2cc1OCCCN1CCCC1
Ki [2]: 500 nM
Ki [3]: 400 nM
Inhibition of control [4]: 69%
Inhibition of control [5]: 90%
Ki [6]: 510 nM
Ki [7]: 1200 nM
Ki [8]: 510 nM
Ki [9]: 370 nM
Inhibition of control [10]: 64%

Structure (SMILES): CC(=O)N[C@@H](CC(C)C)C(=O)N[C@@H](CCC(=O)O)C(=O)N[C@H](C(=O)N[C@H](C=O)CC(=O)O)C(C)C (Ac-LEVD-aldehyde)
IC50 (Caspase-9 [11]): 2.1 nM
IC50 (Caspase-2): 1700 nM
IC50 (Caspase-6): 57 nM
IC50 (Caspase-10 [12]): 140 nM
IC50 (Caspase-5 [13]): 140 nM
IC50 (Caspase-7): 24 nM
IC50 (Caspase-8): 3.3 nM
IC50 (Caspase-3): 57 nM

Structure (SMILES): CC(=O)N[C@@H](Cc1ccccc1)C(=O)N[C@@H](CC(C)C)C(=O)N[C@H](C(=O)N[C@@H](CC(=O)O)C(=O)CCl)[C@@H](C)O (Ac-FLTD-CH2Cl)
IC50 (Caspase-5 [16]): 329 nM
IC50 (Caspase-5 [17]): 329 nM

Structure (SMILES): CC(=O)N[C@@H](CC(C)C)C(=O)N[C@@H](CCC(=O)O)C(=O)N[C@@H](Cc1cnc[nH]1)C(=O)N[C@H](C=O)CC(=O)O (Ac-LEHD-aldehyde)
IC50 (Caspase-10 [18]): 40.4 nM
IC50 (Caspase-5 [19]): 21.3 nM
IC50 (Caspase-10 [20]): 240 nM
IC50 (Caspase-10 [21]): 240 nM
IC50 (Caspase-4): 81.7 nM
IC50 (Caspase-14): 134 nM
IC50 (Caspase-9 [22]): 49.2 nM

The next lines start with the values.

Ki [1]: 345 nM
Structure (SMILES): CN(C)CCCN(CC[C@H](N)C(=O)O)C[C@H]1O[C@@H](n2cnc3c(N)ncnc32)[C@H](O)[C@@H]1O

IC50 [14]: 11700 nM
IC50 [15]: 9040 nM
Structure (SMILES): NC(=O)c1cccc(NC(=O)CCC(=O)NCCc2cn(CCNS(=O)(=O)c3cccc(C(=O)O)c3)nn2)c1
